Reference: patent publication US20240270821A1, “GIP/GLP1/GCG TRI-RECEPTOR AGONISTS AND USES THEREOF” (priority 2023, published 2024)
pEC50: −log10 of the molar value. Where two headings read alike, the source gives them in different places. Starred links: 1 amine or outer side, 2 acyl side, 3 side chain; linkers in the order of their positions; H or OH if unused. Non-standard residues stand in square brackets, D forms with d. Groups on a side chain read outwards from the residue. *: point of attachment. C20 diacid = O=C(O)CCCCCCCCCCCCCCCCCCC(=O)*; C18 diacid = O=C(O)CCCCCCCCCCCCCCCCC(=O)*; αMePhe(2-F) = C[C@](N)(Cc1ccccc1F)C(=O)O; γGlu = O=C(O)[C@H](CCC(=O)[*:2])N[*:1]; αMe4Pal = C[C@](N)(Cc1ccncc1)C(=O)O; αMeY = C[C@](N)(Cc1ccc(O)cc1)C(=O)O; 4Pal = N[C@@H](Cc1ccncc1)C(=O)O; αMeL = CC(C)C[C@](C)(N)C(=O)O; αMeS = C[C@](N)(CO)C(=O)O; Orn = NCCC[C@H](N)C(=O)O; AEEA = NCCOCCOCC(=O)O; Aib = CC(C)(N)C(=O)O

What was measured:
Assay type in all cases: cell-based
hGIPR [1] = target: T1, hGIPR (Homo sapiens, UniProt P48546); test: Functional cAMP activity in the presence of 1% HSA; settings: read-out: cAMP Rel EC50, hGIPR
T1 sequence (P48546 22-466): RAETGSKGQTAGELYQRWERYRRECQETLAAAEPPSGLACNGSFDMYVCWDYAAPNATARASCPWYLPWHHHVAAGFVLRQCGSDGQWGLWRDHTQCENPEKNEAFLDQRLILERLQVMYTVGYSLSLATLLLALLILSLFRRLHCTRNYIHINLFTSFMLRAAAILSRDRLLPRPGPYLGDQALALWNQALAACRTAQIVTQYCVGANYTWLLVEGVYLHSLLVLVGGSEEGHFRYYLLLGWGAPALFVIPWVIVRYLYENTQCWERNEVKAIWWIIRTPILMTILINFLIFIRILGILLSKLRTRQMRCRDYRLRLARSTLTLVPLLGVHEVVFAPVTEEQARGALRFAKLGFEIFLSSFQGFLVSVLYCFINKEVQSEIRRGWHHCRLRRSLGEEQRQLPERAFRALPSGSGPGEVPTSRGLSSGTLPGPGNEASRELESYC

hGLP-1R [2] = target: T2, hGLP-1R (Homo sapiens, UniProt P43220); test: Functional cAMP activity in the presence of 1% HSA; settings: read-out: cAMP Rel EC50, hGLP-1R
human GcgR = human GcgR (Homo sapiens, UniProt P47871); test: Functional cAMP activity in the presence of 1% HSA; settings: read-out: cAMP Rel EC50, hGcgR
hGIPR [3] = target: T1, hGIPR; test: Functional cAMP activation in the presence of 0.1% casein (no HSA); settings: read-out: Relative cAMP EC50, hGIPR;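 on Relative cAMP EC50, hGIPR: intracellular cAMP rise after 30 min at 37 °C read by HTRF against a standard curve, scaled between buffer alone (0%) and top control ligand concentration (100%), four-parameter fit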;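 on Relative cAMP EC50, hGLP-1R: intracellular cAMP rise after 30 min at 37 °C read by HTRF, normalized between buffer only (0%) and maximal control ligand (100%), four-parameter variable-slope fit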;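 on Relative cAMP EC50, hGcgR: intracellular cAMP rise after 30 min at 37 °C, read by HTRF against a cAMP standard curve, scaled from buffer only (0%) to maximal control ligand response (100%)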
hGLP-1R [4] = target: T2, hGLP-1R; test: as above; settings: read-out: Relative cAMP EC50, hGLP-1R
hGcgR = hGcgR (Homo sapiens, UniProt P47871); test: as above; settings: read-out: Relative cAMP EC50, hGcgR;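 further: intracellular cAMP rise after 30 min at 37 °C, read by HTRF against a cAMP standard curve, scaled from buffer only (0%) to maximal control ligand response (100%)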
[5] = HEK-293 clonal cell line, 1% HSA, geometric mean of relative EC50
[6] = in the presence of 0.1% casein (no HSA), geometric mean of relative EC50
[7] = in the presence of 0.1% casein (no HSA), geometric mean
[8] = 0.1% casein, no HSA, geometric mean

Chain of hGcgR (P47871 26-477): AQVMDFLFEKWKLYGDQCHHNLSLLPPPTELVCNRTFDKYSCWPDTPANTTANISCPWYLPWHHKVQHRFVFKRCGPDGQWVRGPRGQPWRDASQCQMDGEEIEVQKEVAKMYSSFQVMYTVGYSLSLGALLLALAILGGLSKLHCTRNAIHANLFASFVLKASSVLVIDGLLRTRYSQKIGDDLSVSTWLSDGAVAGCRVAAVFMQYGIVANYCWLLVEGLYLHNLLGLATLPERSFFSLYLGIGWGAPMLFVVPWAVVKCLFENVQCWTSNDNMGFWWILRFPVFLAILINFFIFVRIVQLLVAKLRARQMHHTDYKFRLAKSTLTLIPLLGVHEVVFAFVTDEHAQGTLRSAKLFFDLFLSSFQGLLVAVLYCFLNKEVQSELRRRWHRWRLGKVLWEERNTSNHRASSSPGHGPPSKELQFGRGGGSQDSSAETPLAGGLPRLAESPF
Chain of human GcgR (P47871 26-477): as above
T2 sequence (P43220 24-463): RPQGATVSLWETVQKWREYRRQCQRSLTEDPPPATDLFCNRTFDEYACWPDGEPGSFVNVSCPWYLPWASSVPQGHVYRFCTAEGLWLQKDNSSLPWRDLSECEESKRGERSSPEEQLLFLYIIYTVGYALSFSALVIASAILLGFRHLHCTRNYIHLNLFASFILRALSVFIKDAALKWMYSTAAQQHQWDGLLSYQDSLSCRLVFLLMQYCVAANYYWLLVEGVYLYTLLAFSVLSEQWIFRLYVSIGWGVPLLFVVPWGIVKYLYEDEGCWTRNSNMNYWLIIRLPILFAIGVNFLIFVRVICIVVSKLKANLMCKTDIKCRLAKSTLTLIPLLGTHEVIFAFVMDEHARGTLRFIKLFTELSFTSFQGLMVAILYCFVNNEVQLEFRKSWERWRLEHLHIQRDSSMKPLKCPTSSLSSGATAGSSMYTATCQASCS

| Compound | pEC50 (hGIPR [1]) | pEC50 (hGLP-1R [2]) | pEC50 (human GcgR) | pEC50 (hGIPR [3]; [7]) | pEC50 (hGLP-1R [4]; [7]) | pEC50 (hGcgR; [7]) | other results |
| --- | --- | --- | --- | --- | --- | --- | --- |
| H-Y[Aib]QGT[αMePhe(2-F)]TSD[4Pal]SI[αMeL]LDKK([γGlu-γGlu-C18 diacid])AQ[Aib][Orn]FIEYLSEGGPSSGEPPPSGSEE-NH2 [Example 637] | – | – | – | – | – | – | pEC50 (hGIPR [1]; [5]): 8.14; pEC50 (hGLP-1R [2]; [5]): 7.12; pEC50 (human GcgR; [5]): 6.01; pEC50 (hGIPR [3]; [6]): 9.97; pEC50 (hGLP-1R [4]; [6]): 8.97; pEC50 (hGcgR; [6]): 7.93 |
| H-Y[Aib]QGT[αMePhe(2-F)]TSD[4Pal]SI[αMeL]LD[Orn]K([AEEA-γGlu-C18 diacid])AQ[αMe4Pal][Orn]FI[dE][αMeY]LIEGGPSSGEPPPESE-NH2 [Example 677] | 8.99 | 7.68 | 6.72 | – | – | – | pEC50 (hGIPR [3]): 10.95; pEC50 (hGLP-1R [4]): 9.60; pEC50 (hGcgR): 8.66 |
| H-Y[Aib]QGT[αMePhe(2-F)]TSD[4Pal]SI[αMeL]LDKK([γGlu-γGlu-C18 diacid])AQ[Aib]AFIEYLEEGGPSSGAPPPSGTGE-NH2 [Example 622] | 8.92 | 7.28 | 6.19 | – | – | – | pEC50 (hGIPR [3]): 10.83; pEC50 (hGLP-1R [4]): 9.11; pEC50 (hGcgR): 8.11 |
| H-Y[Aib]QGTFTSD[4Pal]SQ[αMeL]LDKK([γGlu-γGlu-C18 diacid])AQ[αMe4Pal]QFIE[αMeY]LIEGGPSSGAPPPSGS-NH2 [Example 934] | 7.55 | 6.76 | 5.86 | 10.13 | 9.19 | 8.56 | – |
| H-Y[Aib]QGTFTSD[4Pal]SQ[αMeL]LD[Orn]K([dE-γGlu-C18 diacid])AQ[αMe4Pal]AFIE[αMeY]LLAGGPSSGAPPPSGSEEE-NH2 [Example 1082] | 7.91 | 6.17 | 5.82 | 10.00 | 8.38 | 7.91 | – |
| H-Y[Aib]Q[dA]T[αMePhe(2-F)]TSD[4Pal]SI[αMeL]LD[Orn]K([AEEA-γGlu-C18 diacid])AQ[αMe4Pal]EFI[dE][αMeY]LIEGGPSSGAPPPSGS-NH2 [Example 1206] | 8.15 | 7.36 | 6.60 | – | – | – | pEC50 (hGIPR [3]; [8]): 10.17; pEC50 (hGLP-1R [4]; [8]): 9.45; pEC50 (hGcgR; [8]): 8.75 |
| H-Y[Aib]QGT[αMePhe(2-F)]TSDYSK[αMeL]LDKK([AEEA-γGlu-C18 diacid])AQ[Aib]QFIEYLEEGGPSSGEPPPSEG-NH2 [Example 292] | – | – | – | 8.99 | 8.99 | 8.74 | pEC50 (hGIPR [1]; HEK-293 clonal cells expressing hGIPR, in the presence of 1% HSA, geometric mean of relative EC50): 7.03; pEC50 (hGLP-1R [2]; HEK-293 clonal cells expressing hGLP-1R, in the presence of 1% HSA, geometric mean of relative EC50): 6.89; pEC50 (human GcgR; HEK-293 clonal cells expressing hGcgR, in the presence of 1% HSA, geometric mean of relative EC50): 6.23 |
| H-Y[Aib]QGTFTSD[4Pal]SK[αMeL]LDKK([AEEA-γGlu-C18 diacid])AQ[Aib]AFIEYLIE[Aib]GPSSGAPPPSGSE-NH2 [Example 901] | 7.47 | 6.71 | 5.94 | 9.77 | 8.90 | 8.04 | – |
| H-Y[Aib]QGTFTSD[4Pal]SQ[αMeL]LD[Orn]K([γGlu-γGlu-C18 diacid])AQ[αMe4Pal]AFIEYLIAGGPSSGEPPPSGS-NH2 [Example 1007] | 7.92 | 7.02 | 6.20 | 9.94 | 9.18 | 8.27 | – |
| H-Y[Aib]QGT[αMePhe(2-F)]TSD[4Pal][αMeS]I[αMeL]LD[Orn]K([AEEA-γGlu-C18 diacid])AQ[αMe4Pal]EFI[dE][αMeY]LIEGGPSSGEPPPEGE-NH2 [Example 1149] | 9.02 | 7.28 | 6.74 | 11.09 | 9.45 | 8.86 | – |
| H-Y[Aib]QGTFTSD[4Pal]S[Orn][αMeL]LDKK([γGlu-γGlu-C18 diacid])AQ[αMe4Pal]AFIE[αMeY]LIAGGPSSGEPPPSGS-NH2 [Example 1014] | 8.25 | 7.06 | 6.56 | 10.39 | 9.14 | 8.44 | – |
| H-Y[Aib]QGTFTSDFS[Orn][αMeL]LDKK([AEEA-γGlu-C20 diacid])AQ[Aib]AFIEYLLE[Aib]GPSSGAPPPSGS-NH2 [Example 73] | 7.24 | 6.09 | 5.82 | 9.94 | 8.61 | 8.34 | – |
| H-Y[Aib]QGTFTSD[4Pal]SQ[αMeL]LD[Orn]K([γGlu-γGlu-C18 diacid])AQ[αMe4Pal]AFIEYLIAGGPSSGEPPPSGSE-NH2 [Example 1008] | 7.82 | 6.90 | 6.00 | 9.85 | 8.96 | 8.13 | – |
| H-Y[Aib]QGT[αMePhe(2-F)]TSD[4Pal][αMeS]I[αMeL]LD[Orn]K([AEEA-γGlu-C18 diacid])AA[Aib]EFI[dE][αMeY]LIEGGPSSGAPPPSGEE-NH2 [Example 703] | – | – | – | – | – | – | pEC50 (hGIPR [1]; [5]): 9.02; pEC50 (hGLP-1R [2]; [5]): 7.57; pEC50 (human GcgR; [5]): 6.70; pEC50 (hGIPR [3]; [6]): 11.00; pEC50 (hGLP-1R [4]; [6]): 9.63; pEC50 (hGcgR; [6]): 8.81 |
| H-Y[Aib]QGTFTSD[4Pal]S[Orn][αMeL]LDKK([γGlu-γGlu-C18 diacid])AQ[Aib]AFIE[αMeY]LLEGGPSSGAPPPSGS-NH2 [Example 942] | 7.55 | 6.31 | 5.81 | 9.73 | 8.45 | 8.20 | – |
| H-Y[Aib]QGTFTSDFS[Orn][αMeL]LDKK([γGlu-γGlu-C18 diacid])AQ[Aib]AFIEYLLEGGPSSG[Aib]PPPGGS-NH2 [Example 771] | 7.35 | 6.18 | 6.02 | – | – | – | pEC50 (hGIPR [3]): 9.63; pEC50 (hGLP-1R [4]): 8.36; pEC50 (hGcgR): 8.30 |
| CC[C@H](C)[C@H](NC(=O)[C@H](Cc1ccccc1)NC(=O)[C@H](C)NC(=O)C(C)(C)NC(=O)[C@H](CCC(N)=O)NC(=O)[C@H](C)NC(=O)[C@H](CCCCNC(=O)COCCOCCNC(=O)CC[C@H](NC(=O)CCCCCCCCCCCCCCCCC(=O)O)C(=O)O)NC(=O)[C@H](CCCCN)NC(=O)[C@H](CC(=O)O)NC(=O)[C@H](CC(C)C)NC(=O)[C@H](CC(C)C)NC(=O)[C@@H](NC(=O)[C@H](CO)NC(=O)[C@H](Cc1ccc(O)cc1)NC(=O)[C@H](CC(=O)O)NC(=O)[C@H](CO)NC(=O)[C@@H](NC(=O)[C@](C)(Cc1ccccc1F)NC(=O)[C@@H](NC(=O)CNC(=O)[C@H](CCC(N)=O)NC(=O)C(C)(C)NC(=O)[C@@H](N)Cc1ccc(O)cc1)[C@@H](C)O)[C@@H](C)O)[C@@H](C)CC)C(=O)N[C@@H](CCC(=O)O)C(=O)N[C@@H](Cc1ccc(O)cc1)C(=O)N[C@@H](CC(C)C)C(=O)N[C@@H](CCC(=O)O)C(=O)N[C@@H](CCC(=O)O)C(=O)NCC(=O)NCC(=O)N1CCC[C@H]1C(=O)N[C@@H](CO)C(=O)N[C@@H](CO)C(=O)NCC(=O)N[C@@H](C)C(=O)N1CCC[C@H]1C(=O)N1CCC[C@H]1C(=O)N1CCC[C@H]1C(=O)N[C@@H](CO)C(=O)N[C@@H](CCC(=O)O)C(=O)NCC(N)=O [Example 398] | 7.91 | 7.37 | 6.43 | – | – | – | pEC50 (hGIPR [3]): 10.50; pEC50 (hGLP-1R [4]): 9.73; pEC50 (hGcgR): 8.67 |
